# According to patent US20260022142A1, “MACROCYCLIC IMMUNOMODULATORS” (Bristol-Myers Squibb Company, priority 2022, published 2026):
# Bridge positions count the residues as written; N and C are the ends. Square brackets hold non-standard residues; d marks the D form. Peptide text beside a SMILES is read from it. * marks the point of attachment. ξ: configuration not given here. Phe(3,4-F2) = N[C@@H](Cc1ccc(F)c(F)c1)C(=O)O; Bip = N[C@@H](Cc1ccc(-c2ccccc2)cc1)C(=O)O; NH(CH2)14COOH = O=C(O)CCCCCCCCCCCCCCN*; Phe(3-Me) = Cc1cccc(C[C@H](N)C(=O)O)c1; Val(3-OH) = CC(C)(O)[C@H](N)C(=O)O; hArg = N=C(N)NCCCC[C@H](N)C(=O)O; Cha = N[C@@H](CC1CCCCC1)C(=O)O; Thr(3ξ) = CC(O)[C@H](N)C(=O)O; Carboxymethyl = O=C(O)C*; Orn = NCCC[C@H](N)C(=O)O; Aun = NCCCCCCCCCCC(=O)O; Dab = NCC[C@H](N)C(=O)O; Dap = NC[C@H](N)C(=O)O; AEEA = NCCOCCOCC(=O)O
# Molecular target: T1, PD-1/PD-L1 interaction (PE-labeled human PD-L1-Ig binding to Jurkat cell line over-expressing human PD-1) (Homo sapiens, UniProt Q15116)
# T1 construct: expressed in transfected cells; host or cells: Jurkat
# Assay: Jurkat-PD-1 Cell Binding High-Content Screening Assay (CBA)
# Type: cell-based
# Conditions: Jurkat cell line over-expressing human PD-1; PE-labeled PD-L1-Ig 20 nM final; read-out: Jurkat hPD1-PDL1 IC50
# In short: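 First, compound is added to PD-1-expressing Jurkat cells in serum-containing DMEM and left 2 h at 37° C. Next, PE-conjugated PD-L1-Ig is introduced at 20 nM final concentration for 1 hour. Finally, cells are fixed in 4% paraformaldehyde with Hoechst 33342, washed and imaged.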
# T1 sequence (Q15116 25-288): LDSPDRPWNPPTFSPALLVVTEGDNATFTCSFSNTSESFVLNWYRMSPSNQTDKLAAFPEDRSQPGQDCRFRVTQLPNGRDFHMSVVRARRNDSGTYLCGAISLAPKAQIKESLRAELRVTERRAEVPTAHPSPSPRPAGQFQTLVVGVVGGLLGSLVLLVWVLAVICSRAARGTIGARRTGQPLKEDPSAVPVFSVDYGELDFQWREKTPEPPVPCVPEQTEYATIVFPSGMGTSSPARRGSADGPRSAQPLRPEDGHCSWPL
row,Compound,IC50
1,"Cc1cccc(C[C@@H]2NC(=O)[C@H](CC(=O)O)NC(=O)[C@H](Cc3ccc(OCC(=O)O)cc3)NC(=O)[C@H](Cc3ccc(F)c(F)c3)NC(=O)CSC[C@@H](C(=O)N[C@@H](CCN)C(=O)NCCCCCCCCCCC(=O)O)NC(=O)[C@H](CO)NC(=O)[C@H](C(C)(C)O)NC(=O)[C@H](CC3CCCCC3)NC(=O)[C@H](CCN)NC(=O)[C@@H](CC(C)C)NC(=O)[C@H](CCCN)NC(=O)[C@H](Cc3ccc(OCC(=O)O)cc3)NC(=O)[C@H](Cc3ccc(-c4ccccc4)cc3)NC(=O)[C@H](Cc3ccc(OCC(=O)O)cc3)NC2=O)c1 [Compound 2217] ({CH2CO}-[Phe(3,4-F2)]Y(Carboxymethyl)D[Phe(3-Me)]Y(Carboxymethyl)[Bip]Y(Carboxymethyl)[Orn][dL][Dab][Cha][Val(3-OH)]SC[Dab][Aun]-OH; thioether N-14)",0.0279 µM
2,CC(C)C[C@H]1NC(=O)[C@H](CCCN)NC(=O)[C@H](C(C)C)NC(=O)[C@H](Cc2ccc(-c3ccccc3)cc2)NC(=O)[C@H](C(C)C)NC(=O)[C@H](Cc2c[nH]c3ccccc23)NC(=O)[C@H](CC(=O)O)NC(=O)[C@H](Cc2ccc(OCC(=O)O)cc2)NC(=O)[C@H](CCCCNC(=N)N)NC(=O)CSC[C@@H](C(=O)NCC(=O)NCCOCCOCC(=O)N[C@@H](CCCN)C(=O)NCCCCCCCCCCC(=O)O)NC(=O)[C@H](CCN)NC(=O)[C@H](C(C)C)NC(=O)[C@H](CC2CCCCC2)NC(=O)[C@H](CC(N)=O)NC1=O [Compound 3202] ({CH2CO}-[hArg]Y(Carboxymethyl)DWV[Bip]V[Orn][dL]N[Cha]V[Dab]CG[AEEA][Orn][Aun]-OH; thioether N-14),0.0193 µM
3,CC(=O)NCCCC[C@@H]1NC(=O)[C@H](Cc2ccc(-c3ccccc3)cc2)NC(=O)[C@H](Cc2ccc(O)cc2)NC(=O)[C@H](Cc2cccc(C)c2)NC(=O)[C@H](CC(=O)O)NC(=O)[C@H](Cc2ccc(OCC(=O)O)cc2)NC(=O)[C@H](CCCNC(=N)N)NC(=O)CSC[C@@H](C(=O)N[C@H](CC(N)=O)C(=O)NCCCCCCCCCCC(=O)O)NC(=O)[C@H](C(C)O)NC(=O)[C@H](C(C)C)NC(=O)[C@H](CC2CCCCC2)NC(=O)[C@H](CCN)NC(=O)[C@@H](CC(C)C)NC(=O)[C@H](CCC(N)=O)NC1=O (stereo partly drawn) [Compound 3543] ({CH2CO}-RY(Carboxymethyl)D[Phe(3-Me)]Y[Bip]K(Ac)Q[dL][Dab][Cha]V[Thr(3ξ)]C[dN][Aun]-OH; thioether N-14),0.0133 µM

# The remaining lines, values ahead:
row,IC50,Compound
1,0.028 µM,Cc1cccc(C[C@@H]2NC(=O)[C@H](CC(=O)O)NC(=O)[C@H](Cc3ccc(OCC(=O)O)cc3)NC(=O)[C@H](C)NC(=O)CSC[C@@H](C(=O)N[C@@H](CCN)C(=O)NCCOCCOCC(=O)NCCOCCOCC(=O)NCCOCCOCC(=O)NCCOCCOCC(=O)NCCCCCCCCCCCCCCC(=O)O)NC(=O)[C@H](Cc3cnc[nH]3)NC(=O)[C@H](C(C)(C)O)NC(=O)[C@H](CC3CCCCC3)NC(=O)[C@H](CCN)NC(=O)[C@@H](CC(C)C)NC(=O)[C@H](CCCN)NC(=O)[C@H](Cc3ccc(OCC(=O)O)cc3)NC(=O)[C@H](Cc3ccc(-c4ccccc4)cc3)NC(=O)[C@H](Cc3ccc(OCC(=O)O)cc3)NC2=O)c1 [Compound 3870] ({CH2CO}-AY(Carboxymethyl)D[Phe(3-Me)]Y(Carboxymethyl)[Bip]Y(Carboxymethyl)[Orn][dL][Dab][Cha][Val(3-OH)]HC[Dab][AEEA][AEEA][AEEA][AEEA]-{NH(CH2)14COOH}; thioether N-14)
2,0.015 µM,Cc1cccc(C[C@@H]2NC(=O)[C@H](CC(=O)O)NC(=O)[C@H](Cc3ccc(OCC(=O)O)cc3)NC(=O)[C@H](CN)NC(=O)CSC[C@@H](C(=O)N[C@@H](C)C(=O)N[C@@H](CC(=O)O)C(=O)NCCCCCCCCCCC(=O)O)NC(=O)[C@H]([C@@H](C)O)NC(=O)[C@H](C(C)C)NC(=O)[C@H](CC3CCCCC3)NC(=O)[C@H](CCN)NC(=O)[C@@H](CC(C)C)NC(=O)[C@H](CCCN)NC(=O)[C@H](CCC(=O)O)NC(=O)[C@H](Cc3ccc(-c4ccccc4)cc3)NC(=O)[C@H](C(C)C)NC2=O)c1 [Compound 1049] ({CH2CO}-[Dap]Y(Carboxymethyl)D[Phe(3-Me)]V[Bip]E[Orn][dL][Dab][Cha]VTCAD[Aun]-OH; thioether N-14)
